This passage reports IC50 results from patent publication US20170305922A1, “CARM1 INHIBITORS AND USES THEREOF” (Epizyme, Inc., priority 2014, published 2017).

What is called IC50 is the concentration that gives 50% inhibition.

The target of one experiment is T1, Human CARM1 (PRMT4) (Homo sapiens, UniProt Q86X55).
T1 construct: Flag-CARM1-His was eluted with 200 ug/ml FLAG peptide in buffer A; made in house; host or cells: HEK 293F cells infected with recombinant baculovirus (pFastBacMam)
T1 sequence (Q86X55 1-585 isoform Q86X55-1): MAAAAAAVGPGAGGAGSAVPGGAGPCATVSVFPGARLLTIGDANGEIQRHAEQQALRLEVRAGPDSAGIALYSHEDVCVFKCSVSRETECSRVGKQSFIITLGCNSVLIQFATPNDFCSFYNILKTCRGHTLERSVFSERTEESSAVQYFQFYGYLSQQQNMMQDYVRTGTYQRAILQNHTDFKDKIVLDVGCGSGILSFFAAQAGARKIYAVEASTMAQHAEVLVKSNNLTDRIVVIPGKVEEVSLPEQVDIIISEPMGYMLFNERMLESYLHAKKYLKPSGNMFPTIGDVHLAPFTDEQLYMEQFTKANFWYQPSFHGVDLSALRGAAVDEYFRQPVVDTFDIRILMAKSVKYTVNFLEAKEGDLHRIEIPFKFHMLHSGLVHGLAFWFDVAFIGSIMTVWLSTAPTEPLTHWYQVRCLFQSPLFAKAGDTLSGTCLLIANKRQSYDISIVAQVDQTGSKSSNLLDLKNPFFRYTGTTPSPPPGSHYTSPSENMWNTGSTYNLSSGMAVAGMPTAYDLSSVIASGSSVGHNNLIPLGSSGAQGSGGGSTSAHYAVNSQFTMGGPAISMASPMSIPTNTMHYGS
The experiment can be described thus: CARM1 enzyme assay on peptide substrates (3H-SAM Flashplate). The conditions noted are these: Biochemical assay; CARM1 0.25 nM, 3H-SAM 30 nM, peptide 250 nM; read-out: Biochem IC50.

The subject of experiment [1] is asymmetric di-methyl PABP1 in RKO cells. The experiment can be described thus: RKO methylation assay: In Cell Western (ICW) for asymmetric di-methyl PABP1 (PABP1me2a). The conditions noted are these: Cellular-based (PABP1me2a) ICW (In Cell Western) assay. In short, it runs like this: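 In-cell western on compound-exposed RKO cells (48 hours): asymmetric di-methyl PABP1 detected by antibody at 800 nm, DNA content by DRAQ5 at 700 nm. Percent inhibition from signal ratios against DMSO (minimum) and 20 μM reference compound (maximum) wells; IC50 curves fitted from triplicates.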

`CNC[C@@H](O)COc1ccc(Cl)c(-c2nc(-c3c(C)noc3C)c(C)c(N3CC4(CC(N(C)CC(F)(F)F)C4)C3)n2)c1` [Example 271]: the IC50 turned out to be 7.42 nM on Human CARM1 (PRMT4) and 89.1 nM in experiment [1] (Homo sapiens, RKO, 48 h).
Taken in the same sequence, the figures for `CNC[C@@H](O)COc1ccc(Cl)c(-c2nc(-c3c(C)noc3C)c(C)c(N3CC4(C3)CC(OC)(OC)C4)n2)c1` [Example 272] were 5.43 nM and 79 nM.
Taken in the same sequence, the figures for `CNC[C@@H](O)COc1ccc(Cl)c(-c2nc(-c3c(C)noc3C)c(C)c(N3Cc4ccc(OCC(F)F)nc4C3)n2)c1` [Example 273] were 2.26 nM and 61.9 nM.
Taken in the same sequence, the figures for `CNC[C@@H](O)COc1ccc(Cl)c(-c2nc(-c3c(C)c(Cl)nn3C)c(C)c(N3CC4(CC(OC(C)C)C4)C3)n2)c1` [Example 274] were 5.03 nM and 48.8 nM.
As for `CNC[C@@H](O)COc1ccc(Cl)c(-c2nc(-c3c(C)c(Br)nn3C)c(C)c(N3CC4(CC(OC(C)C)C4)C3)n2)c1` [Example 275], the IC50 at Human CARM1 (PRMT4) turned out to be 3.53 nM; in experiment [1] (Homo sapiens, RKO, 48 h), 45 nM.
Taken in the same sequence, the figures for `CNC[C@@H](O)COc1ccc(Cl)c(-c2nc(-c3c(C)noc3C)c(C)c(N3CC4(C3)CC3(C4)OCCO3)n2)c1` [Example 276] were 4.92 nM and 75.7 nM.
Taken in the same sequence, the figures for `CNC[C@@H](O)COc1ccc(Cl)c(-c2nc(-c3c(C)noc3C)c(C)c(N3CC4(CN(CCC#N)C4)C3)n2)c1` [Example 277] were 8.24 nM and 1470 nM.
Taken in the same sequence, the figures for `CNC[C@@H](O)COc1ccc(Cl)c(-c2nc(-c3c(C)noc3C)c(C)c(N3CC4(CCC4F)C3)n2)c1` (some centres unmarked) [Example 278] were 4.11 nM and 544 nM.
Regarding `CNC[C@@H](O)COc1ccc(Cl)c(-c2nc(-c3c(C)noc3C)c(C)c(N3CC4(CC(N5CC(F)(F)C5)C4)C3)n2)c1` [Example 279], the IC50 on Human CARM1 (PRMT4) was found to be 5.75 nM; in experiment [1] (Homo sapiens, RKO, 48 h), 54.2 nM.
In the case of `CNC[C@@H](O)COc1ccc(Cl)c(-c2nc(-c3c(C)noc3C)c(C)c(N3CC4(CC(N5CC(F)C5)C4)C3)n2)c1` [Example 280], the IC50 at Human CARM1 (PRMT4) was determined as 2.09 nM; in experiment [1] (Homo sapiens, RKO, 48 h) it was 105 nM.
Taken in the same sequence, the figures for `CNC[C@@H](O)COc1ccc(Cl)c(-c2nc(-c3c(C)noc3C)c(C)c(N3CC4(CC(N(C)C5CC5)C4)C3)n2)c1` [Example 281] were 1.04 nM and 79.2 nM.
On to `CNC[C@@H](O)COc1ccc(Cl)c(-c2nc(-c3c(C)noc3C)c(C)c(N3CC4(CC(NC)C4)C3)n2)c1` [Example 282], for which the IC50 at Human CARM1 (PRMT4) came to 0.9 nM; in experiment [1] (Homo sapiens, RKO, 48 h) it was 2210 nM.
Taken in the same sequence, the figures for `CNC[C@@H](O)COc1ccc(Cl)c(-c2nc(-c3c(C)noc3C)c(C)c(N3CC4(C3)CN(C(C)C(F)(F)F)C4)n2)c1` (some centres unmarked) [Example 283] were 5.67 nM and 48.4 nM.
Taken in the same sequence, the figures for `CNC[C@@H](O)COc1ccc(Cl)c(-c2nc(-c3c(C)c(Br)nn3C)c(C)c(N3CC4(CN(CC(F)F)C4)C3)n2)c1` [Example 284] were 2.36 nM and 39.2 nM.
Taken in the same sequence, the figures for `CNC[C@@H](O)COc1ccc(Cl)c(-c2nc(-c3c(C)c(Cl)nn3C)c(C)c(N3CC4(CN(CC(F)F)C4)C3)n2)c1` [Example 285] were 2.4 nM and 46.1 nM.
With `CNC[C@@H](O)COc1ccc(Cl)c(-c2nc(-c3c(C)noc3C)c(C)c(N3CC(C#N)(COC)C3)n2)c1` [Example 286], the IC50 was 4.17 nM at Human CARM1 (PRMT4) and 282 nM in experiment [1] (Homo sapiens, RKO, 48 h).
Taken in the same sequence, the figures for `CNC[C@@H](O)COc1ccc(Cl)c(-c2nc(-c3c(C)noc3C)c(C)c(N3CC4(CC(OCCC#N)C4)C3)n2)c1` [Example 287] were 4.46 nM and 69.1 nM.
Taken in the same sequence, the figures for `CNC[C@@H](O)COc1ccc(Cl)c(-c2nc(-c3c(C)noc3C)c(C)c(N3CC4(CCC4OC)C3)n2)c1` (some centres unmarked) [Example 288] were 3.86 nM and 234 nM.
Taken in the same sequence, the figures for `CNC[C@@H](O)COc1ccc(Cl)c(-c2nc(-c3c(C)noc3C)c(C)c(N3CC4(CC(N(C)CC(F)F)C4)C3)n2)c1` [Example 289] were 4.08 nM and 76 nM.
For the compound `CNC[C@@H](O)COc1ccc(Cl)c(-c2nc(-c3c(C)noc3C)c(C)c(N3CC4(CC(OCC(F)F)C4)C3)n2)c1` [Example 290], the results for the IC50 (on Human CARM1 (PRMT4); in experiment [1] (48 hours)) were 3.39 nM and 38.2 nM, respectively.
In the case of `CNC[C@H](O)COc1ccc(Cl)c(-c2nc(-c3c(C)noc3C)c(C)c(N3Cc4cccnc4C3)n2)c1` [Example 293], the IC50 at Human CARM1 (PRMT4) was determined as 1.42 nM; in experiment [1] (Homo sapiens, RKO, 48 h) it was 155 nM.
Consider `CNC[C@@H](O)COc1ccc(Cl)c(-c2nc(-c3c(C)c(Cl)nn3C)c(C)c(N3CC4(CCCN(C(=O)OC)C4)C3)n2)c1` [Example 295], for which the IC50 on Human CARM1 (PRMT4) stood at 3.78 nM; in experiment [1] (Homo sapiens, RKO, 48 h), 82.7 nM.
With `CNC[C@@H](O)COc1ccc(Cl)c(-c2nc(-c3c(C)noc3C)c(C)c(N3CC4(CCCN(C(=O)OC)C4)C3)n2)c1` [Example 296], the IC50 at Human CARM1 (PRMT4) was found to be 6.4 nM; in experiment [1] (Homo sapiens, RKO, 48 h), 137 nM.
Taken in the same sequence, the figures for `CNC[C@@H](O)COc1ccc(Cl)c(-c2nc(-c3c(C)c(Br)nn3C)c(C)c(N3CC4(CC(OCCC#N)C4)C3)n2)c1` [Example 297] were 2.83 nM and 39.4 nM.
Taken in the same sequence, the figures for `CNC[C@@H](O)COc1ccc(Cl)c(-c2nc(-c3c(C)c(Br)nn3C)c(C)c(N3CC4(CN(CCC#N)C4)C3)n2)c1` [Example 298] were 3.11 nM and 244 nM.
Taken in the same sequence, the figures for `CNC[C@@H](O)COc1ccc(Cl)c(-c2nc(-c3c(Cl)cnn3C)c(C)c(N3Cc4cnc(N5CC(OC)C5)nc4C3)n2)c1` [Example 299] were 2.94 nM and 17.6 nM.
As to `CNC[C@@H](O)COc1ccc(Cl)c(-c2nc(-c3c(C)noc3C)c(C)c(N3CC4(CCCN(CC(F)(F)F)C4)C3)n2)c1` [Example 301], the IC50 on Human CARM1 (PRMT4) came to 7.99 nM; in experiment [1] (Homo sapiens, RKO, 48 h) it was 125 nM.
Taken in the same sequence, the figures for `CNC[C@@H](O)COc1ccc(Cl)c(-c2nc(-c3c(C)noc3C)c(C)c(N3CC4(CCCN(C(=O)OCC(F)F)C4)C3)n2)c1` [Example 302] were 5.18 nM and 70.2 nM.
Taken in the same sequence, the figures for `CNC[C@@H](O)COc1ccc(Cl)c(-c2nc(-c3c(C)c(Br)nn3C)c(C)c(N3CC4(CC(OCC(F)F)C4)C3)n2)c1` [Example 303] were 5.91 nM and 37.6 nM.
In the case of `CNC[C@@H](O)COc1ccc(Cl)c(-c2nc(-c3c(C)c(Br)nn3C)c(C)c(N3CC(CCl)(CNCC(F)(F)F)C3)n2)c1` [Example 304], the IC50 at Human CARM1 (PRMT4) was 6.81 nM; in experiment [1] (Homo sapiens, RKO, 48 h), 142 nM.
Consider `CNC[C@@H](O)COc1ccc(Cl)c(-c2nc(-c3c(C)c(Br)nn3C)c(C)c(N3CC4(CN(CC(F)(F)F)C4)C3)n2)c1` [Example 305], for which the IC50 is 8.35 nM at Human CARM1 (PRMT4) and 27.7 nM in experiment [1] (48 hours).
As to `CNC[C@@H](O)COc1ccc(Cl)c(-c2nc(-c3c(C)noc3C)c(C)c(N3CC4(CC(C#N)C4)C3)n2)c1` [Example 306], the IC50 worked out at 6.52 nM on Human CARM1 (PRMT4) and 173 nM in experiment [1] (Homo sapiens, RKO, 48 h).
Taken in the same sequence, the figures for `CCOc1ncc2c(n1)CN(c1nc(-c3cc(OC[C@H](O)CNC)ccc3Cl)nc(-c3c(Cl)cnn3C)c1C)C2` [Example 307] were 3.86 nM and 45.4 nM.
Taken in the same sequence, the figures for `Cc1noc(C)c1-c1nc(-c2cc(OC[C@H](O)CN(C)C=O)ccc2Cl)nc(N2Cc3cccnc3C2)c1C` [Example 308] were 120 nM and 1820 nM.
Taken in the same sequence, the figures for `CNC[C@@H](O)COc1ccc(Cl)c(-c2nc(-c3c(C)noc3C)c(C)c(N3CC4(C3)CN([C@H](C)C(F)(F)F)C4)n2)c1` [Example 330] were 4.83 nM and 40.9 nM.
Take `CNC[C@@H](O)COc1ccc(Cl)c(-c2nc(-c3c(C)noc3C)c(C)c(N3CC4(C3)CN([C@@H](C)C(F)(F)F)C4)n2)c1` [Example 331]: the IC50 at Human CARM1 (PRMT4) was 6.31 nM; in experiment [1] (Homo sapiens, RKO, 48 h), 32.9 nM.
Taken in the same sequence, the figures for `CNC[C@@H](O)COc1ccc(Cl)c(-c2nc(-c3c(C)c(Cl)nn3C)c(C)c(N3CC4(CC(C#N)C4)C3)n2)c1` [Example 332] were 4.1 nM and 80.9 nM.
Taken in the same sequence, the figures for `CNC[C@@H](O)COc1ccc(Cl)c(-c2nc(-c3c(C)c(Br)nn3C)c(C)c(N3CC4(CC(C#N)C4)C3)n2)c1` [Example 333] were 2.46 nM and 64.4 nM.
Taken in the same sequence, the figures for `CNC[C@@H](O)COc1ccc(Cl)c(-c2nc(-c3c(Cl)cnn3C)c(C)c(N3CC4=C(CN(C(=O)OC)CC4)C3)n2)c1` [Example 334] were 2.53 nM and 43.4 nM.
As for `CNC[C@@H](O)COc1ccc(Cl)c(-c2nc(-c3c(Cl)cnn3C)c(C)c(N3CC4=C(CN(C(=O)OC)C4)C3)n2)c1` [Example 335], the IC50 at Human CARM1 (PRMT4) amounted to 2.28 nM; in experiment [1] (Homo sapiens, RKO, 48 h), 30.5 nM.
